# Assay results as given in ChEMBL document CHEMBL1165947, “Synthesis and antitumor activity of 2,5-bis(3'-indolyl)-furans and 3,5-bis(3'-indolyl)-isoxazoles, nortopsentin analogues” (Bioorg Med Chem, 2010).
# System: P388
# Experiment: Cytotoxicity against mouse P388 cells
# Type: functional, cell-based
smiles,measurement,value
Cn1c(-c2cn(C)c3cc(Br)ccc23)cnc1-c1cn(C)c2ccccc12,IC50,800 nM
